Consider two substances from patent publication US9420813B2, “Sweetener” (AJINOMOTO CO., INC., priority 2007, dated 2016).

*1 amine or outer side, *2 acyl side, *3 side chain or, on linkers, in order; H or OH if unused. Where no end group is shown, it is not given here. [ ]: non-standard residue; d: D form. γGlu = O=C(O)[C@H](CCC(=O)[*:2])N[*:1]; Abu = CC[C@H](N)C(=O)O

Experiment [1] in a line: Quantitative sensory evaluation test, intensity of kokumi-imparting activity. Details: key to Kokumi intensity, initial and middle taste / Kokumi intensity, aftertaste / Taste profile: *: Unmeasurable: kokumi-imparting activity is too strong to measure by sensory evaluation.
Method: The quantitative sensory evaluation test was performed as follows. […] When a sample is acidic when dissolved, the pH was adjusted with NaOH to pH 6.8 to 7.2 before use. Because it is known that glutathione can impart kokumi to a food, glutathione was used as a comparative control. The test was performed with n=3 based on the following sensory evaluation scores: control was given 0 points, glutathione addition was given 3 points. […] It should be noted that the term “initial and middle taste” is a collective term of the initial taste and middle taste.
The quantitative sensory evaluation test was performed as follows. […] When a sample is acidic when dissolved, the pH of the sample was adjusted with NaOH to pH 6.8 to 7.2 before use. The test was performed with n=5 based on the following sensory evaluation scores: control was given 0 point and glutathione addition was given 3 points.
The quantitative sensory evaluation test was performed as follows. […] As for a sample which is acidic when the sample is dissolved, pH of the sample was adjusted with NaOH to pH 6.8 to 7.2 before use. The test was performed with n=12 based on the following sensory evaluation scores: control: 0 point and glutathione addition: 3 points.
Experiment [2] is described as follows: Quantitative sensory evaluation, improvement of body taste and bitterness of combined high-intensity sweeteners (Examples 2 and 4). Details: species or system human. The note with it: for Bitterness: control 0, <0 improved; for Bitterness / Body taste: n=12; for Body taste: control 0, >0 improved. The method, then:
The quantitative sensory evaluation test was performed as follows. As for a combination standard solution of each sweeteners, the following compounds were used. The following standard solutions have been adjusted so they each have almost the same degree of sweetness.
ii) APM (0.02 g/dl)+Ace-K (0.005 g/dl) [APM:Ace-K=8:2 as a ratio of degrees of sweetness]
iii) Sucralose (0.0058 g/dl)+Ace-K (0.0075 g/dl) [sucralose:Ace-K=7:3 as a ratio of degrees of sweetness]
iv) APM (0.0125 g/dl)+sucralose (0.0042 g/dl) [APM:sucralose=1:1 as a ratio of degrees of sweetness]
v) APM (0.0125 g/dl)+sucralose (0.0021 g/dl)+Ace-K (0.0063 g/dl) [APM:sucralose:Ace-K=2:1:1 as a ratio of degrees of sweetness]
To distilled water containing each of the sweeteners, γ-Glu-Cys-Gly (glutathione), γ-Glu-Val-Gly or γ-Glu-Abu-Gly was added and mixed at concentrations of 0.0001 to 1 g/dl, and then the degree of the improvement of the body taste and the improvement of the bitterness on the sweet taste was measured. The addition effect of the peptides on each of the high-intensity sweeteners was evaluated with reference to sucrose.
When a mixture is more acidic than the standard control solution, the pH of the mixture was adjusted with NaOH to achieve a range of pH±0.2 with respect to the pH of the standard solution before use.
The sensory evaluation for the improvement of the body taste was performed with n=12 on the basis of the following criteria: a control (obtained by adding distilled water only and without adding glutathione and/or the peptide) was defined as 0, and by using the control as a standard, the follow were defined: weak: −2 points; slightly weak: −1 point; slightly strong: 1 point, and strong: 2 points. A higher score than 0 means that the sample has a body taste-improving effect.
Alternatively, the sensory evaluation for the improvement of the bitterness was performed with n=12 on the basis of the following criteria: a control (obtained by adding distilled water only and without adding glutathione and/or the peptide) was defined as 0, and by using the control as a standard, the following were defined: weak: −2 points; slightly weak: −1 point; slightly strong: 1 point, and strong: 2 points. A lower score than 0 means that the sample improves the bitterness.
The quantitative sensory evaluation test was performed as follows. As for combination standard solution of each sweeteners, the following compound was used. The following standard solutions have been adjusted so they each have almost the same degree of sweetness.
To distilled water containing each sweetener mentioned above, γ-Glu-Val-Gly or cinacalcet was added and mixed at concentrations of 0.0001 to 1 g/dl, and then each degree of the improvement of the body taste and the improvement of the bitterness on the sweet taste was measured. The addition effect of the sample on each of the high intensity sweeteners was evaluated with reference to sucrose.
When a mixture is more acidic than the standard control solution, the pH of the sample was adjusted with NaOH to achieve a range of pH±0.2 with respect to the pH of the standard solution before use.
The sensory evaluation for the improvement of the body taste was performed with n=12 on the basis of the following criteria: a control (obtained with adding distilled water only and without adding the sample) was defined as 0, and by using the control as a standard, the following were defined: weak: −2 points; slightly weak: −1 point; slightly strong: 1 point, and strong: 2 points. A higher score than 0 means that the sample improves the body taste.
Alternatively, the sensory evaluation for the improvement of the bitterness was performed with n=12 on the basis of the following criteria: a control (obtained with adding distilled water only and without adding the sample) was defined as 0, and by using the control as a standard, the following were defined: weak: −2 points; slightly weak: −1 point; slightly strong: 1 point, and strong: 2 points. […]

Setting [3] is: sample 0.01 g/dl, control 0, glutathione 3 points, n=12.
[4] abbreviates: APM 0.0125 + sucralose 0.0021 + Ace-K 0.0063 g/dl (2:1:1), sample 0.001 g/dl.
Setting [5] is: APM 0.0125 + sucralose 0.0021 + Ace-K 0.0063 g/dl (2:1:1), sample 0.01 g/dl.
Where [6] appears, read: APM 0.0125 g/dl + sucralose 0.0042 g/dl (1:1), sample 0.001 g/dl.
Where [7] appears, read: APM 0.0125 g/dl + sucralose 0.0042 g/dl (1:1), sample 0.01 g/dl.
[8] abbreviates: APM 0.02 g/dl + Ace-K 0.005 g/dl (8:2), sample 0.001 g/dl.
Setting [9] is: APM 0.02 g/dl + Ace-K 0.005 g/dl (8:2), sample 0.01 g/dl.
Setting [10] is: sucralose 0.0058 g/dl + Ace-K 0.0075 g/dl (7:3), sample 0.001 g/dl.
The mark [11] stands for this setting: sucralose 0.0058 g/dl + Ace-K 0.0075 g/dl (7:3), sample 0.01 g/dl.
Where [12] appears, read: sample 0.01 g/dl, control 0, glutathione 3 points, n=5.
Setting [13] is: APM 0.0125 + sucralose 0.0021 + Ace-K 0.0063 g/dl (2:1:1), sample 0.0001 g/dl.
The mark [14] stands for this setting: APM 0.0125 g/dl + sucralose 0.0042 g/dl (1:1), sample 0.0001 g/dl.
The mark [15] stands for this setting: APM 0.02 g/dl + Ace-K 0.005 g/dl (8:2), sample 0.0001 g/dl.
Where [16] appears, read: sucralose 0.0058 g/dl + Ace-K 0.0075 g/dl (7:3), sample 0.0001 g/dl.

With [γGlu]-[Abu]-Gly, the “Kokumi intensity, aftertaste” value in experiment [1] (setting [3]) is recorded as 2.0 points. Besides, the “Kokumi intensity, initial and middle taste” value in experiment [1] (setting [3]) is listed as 3.0 points. The Bitterness is given as −0.4 points in experiment [2] (setting [4]); −0.8 points in experiment [2] (setting [5]); −0.1 points in experiment [2] (setting [6]); −0.1 points in experiment [2] (setting [7]); −0.3 points in experiment [2] (setting [8]); −0.7 points in experiment [2] (setting [9]). Besides, the Bitterness in experiment [2] (setting [10]) is listed as −0.3 points; in experiment [2] (setting [11]), −0.7 points. Besides, the Body taste in experiment [2] (setting [4]) worked out at 0.6 points; in experiment [2] (setting [5]), 1.3 points; in experiment [2] (setting [6]), 0.6 points; in experiment [2] (setting [7]), 1.3 points; in experiment [2] (setting [8]), 0.6 points; in experiment [2] (setting [9]), 1.3 points. For the same substance, the values for the Body taste in experiment [2] (setting [10]) and in experiment [2] (setting [11]) were 0.5 points and 1.1 points, respectively. Besides, the Taste profile result is recorded as “Harmony is present. Sweet taste is enhanced” in experiment [2] (APM:sucralose = 1:1, sample 0.001 g/dl) and “Harmony is present. Sweet taste is enhanced” in experiment [2] (APM:sucralose = 1:1, sample 0.01 g/dl).
As for [γGlu]-Val-Gly, the “Kokumi intensity, aftertaste” value in experiment [1] (setting [12]) was 3.0 points; in experiment [1] (setting [3]), 3.0 points; in experiment [1] (sample 0.1 g/dl, n=5, symbol), “*”. The “Kokumi intensity, initial and middle taste” value in experiment [1] (setting [12]) is recorded as 3.0 points; in experiment [1] (setting [3]), 3.0 points; in experiment [1] (sample 0.1 g/dl, n=5, symbol) it was “*”. In addition, the Taste profile entry was “*” in experiment [1] (sample 0.1 g/dl, n=5, symbol) and “Sweet taste with growth is enhanced in middle” in experiment [2] (APM:Ace-K = 8:2, sample 0.0001 g/dl). Also, the Bitterness was −0.3 points in experiment [2] (setting [13]); −0.7 points in experiment [2] (setting [4]); −0.2 points in experiment [2] (setting [14]); −0.4 points in experiment [2] (setting [6]); −0.3 points in experiment [2] (setting [15]); −0.7 points in experiment [2] (setting [8]). Also, the Bitterness in experiment [2] (setting [16]) is recorded as −0.3 points; in experiment [2] (setting [10]), −0.7 points. In addition, the Body taste in experiment [2] (setting [13]) amounted to 0.6 points; in experiment [2] (setting [4]), 1.3 points; in experiment [2] (setting [14]) it was 0.6 points; in experiment [2] (setting [6]) it was 1.3 points; in experiment [2] (setting [15]), 0.6 points; in experiment [2] (setting [8]) it was 1.3 points. Further, the Body taste in experiment [2] (setting [16]) was 0.7 points; in experiment [2] (setting [10]) it was 1.3 points. Besides, the “improvement of the body taste (conclusion in words)” value in experiment [2] (combined sweetener solutions, Tables 9 to 12 and 16 to 19) was “improves the body taste at almost the same concentration”.
